Earlier results in patent publication US6579895B2, “Use of a celecoxib composition for fast pain relief” (Pharmacia Corporation, priority 2000, dated 2003).

How the values were obtained:
[1] = system: post-surgical pain; conditions: ibuprofen 400 mg; e.g. post-surgical pain
[2] = biological target: plasma albumin (Homo sapiens, UniProt P02768); conditions: following oral administration
Chain of plasma albumin (P02768 25-609): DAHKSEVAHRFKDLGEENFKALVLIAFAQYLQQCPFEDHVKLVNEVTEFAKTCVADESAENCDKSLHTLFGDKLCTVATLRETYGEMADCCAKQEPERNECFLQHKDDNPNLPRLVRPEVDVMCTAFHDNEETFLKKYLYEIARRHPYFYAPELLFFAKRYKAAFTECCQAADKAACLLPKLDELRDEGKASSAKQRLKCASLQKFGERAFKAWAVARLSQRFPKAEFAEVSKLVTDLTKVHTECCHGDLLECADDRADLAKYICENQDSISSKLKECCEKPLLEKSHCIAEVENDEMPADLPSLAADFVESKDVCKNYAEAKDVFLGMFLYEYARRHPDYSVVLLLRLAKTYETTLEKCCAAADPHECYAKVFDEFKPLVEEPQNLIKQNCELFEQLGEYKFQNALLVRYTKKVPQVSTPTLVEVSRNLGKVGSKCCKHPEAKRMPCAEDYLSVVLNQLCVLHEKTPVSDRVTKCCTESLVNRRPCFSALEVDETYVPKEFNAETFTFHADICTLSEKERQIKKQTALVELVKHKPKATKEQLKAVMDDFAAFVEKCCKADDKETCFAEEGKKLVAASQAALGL

binding to plasma albumin [2] | Compound | time after administration to an adequate level of suppression of pain [1]
– | CC(C)Cc1ccc(C(C)C(=O)O)cc1 (centres unmarked) [Ibuprofen, ibuprofen] | about 1 hour
extensive binding | Cc1ccc(-c2cc(C(F)(F)F)nn2-c2ccc(S(N)(=O)=O)cc2)cc1 [celecoxib, 4-[5-(4-methylphenyl)-3-(trifluoromethyl)-1H-pyrazol-1-y1]benzenesulfonamide] | –
